Test results published in patent US12186332B2, “Methods for overcoming WNT/beta-catenin anti-cancer resistance in leukemia stem cells” (STOWERS INSTITUTE FOR MEDICAL RESEARCH, priority 2019, dated 2025).

What was measured:
Format in all cases: in vivo, mouse
[1] = test system: LSCs and HSPCs transcriptome; experiment: RNA-seq of populations sorted from treated leukemic mice
Procedure: HSPCs, LSCs, and blast cells were sorted by FACS at […] post-treatment of leukemic mice; representative sorting gates are shown. Note distinct LSC population (compare to isotype) in vehicle versus low-dose DXR+chemotherapy treatment when LSCs show very low frequency. Other plots are from vehicle control. To obtain sufficient cells from the clinical DXR sample, the 5×4 […] DXR daily dosing schedule was used.
Data from two biological replicates of each, differing by <0.3 standard deviations, are shown.
Cohorts of leukemic mice were treated with vehicle, chemotherapy, [Low]DXR, clinical-dose DXR or chemotherapy+[Low]DXR as in FIG. 8. At 10 days post-treatment (day 1=start of treatment), blast cells, LSCs, and HSPCs were sorted using stringent gates (see FIG. 4A) for these populations. For each population, two biological replicates were made with 1-3 technical replicates each. Each biological replicate was a pool of sorted cells from 4-5 male and 4-5 female mice. Technical replicates were samples of sorted cells from each biological replicate. 1,000 cells per sample were sorted into 96-well plates with 7 μl lysis buffer containing RNase inhibitor (2 U/μl) from BM. First-strand cDNA synthesis and cDNA libraries were constructed using the SMARTer ultra low input RNA kit for sequencing—v3 (Clontech) following the manufacturer's instructions. cDNA quality was determined by Agilent high sensitivity DNA kit on Agilent 2100 BioAnalyzer (Agilent Technologies). Libraries were sequenced at 50 bp on the Illumina HiSeq 2500. Reads were aligned to UCSC mm10 with Tophat 2.1.1 (Kim et al. 2013), using gene models from Ensembl 80. Read counts per gene were obtained with HTSeq-count 0.6.0 (Anders et al. 2015). Analysis was done in R with the EdgeR package (Robinson et al. 2010) using default methods. […] Data can be accessed at https://www.ncbi.nlm.nih.qov/geo/query/acc.cqi?acc=GSE105049.

[2] = test system: leukemia (T-ALL) in Pten:β-cat^Act mice; experiment: Long-term survival of treated leukemic mice
Procedure: Treatment schematic and Kaplan-Meier curves of leukemic mice treated as indicated. Red arrow indicates day 0 in survival curve.
Dashed line indicates day of final [Low]nanoDXR treatment.
Chemotherapy for the animal model consisted of Nelarabine (Selleck) and Dexamethasone (BioVision) administered daily for 5 days consecutively. 43.4 mg/ml Nelarabine was administered intravenously via the tail vain according to the formula: Body Weight (g)×5=volume to inject (μl), which yielded 217 mg/kg. 2.5 mg/ml Dexamethasone was injected intraperitoneally according to the formula: Body Weight (g)×4=volume to inject (μl), yielding 10 mg/kg. […] [Low] NanoDXR treatment used doxorubicin nanoparticles (Tran et al. 2014) administered as a single IV injection once per week on day 1 relative to above treatments using 0.8 mg/kg. Maintenance [Low] NanoDXR consisted of once per week injections of 0.4 mg/kg. Groups combining Nelarabine with Doxorubicin used a single injection containing both drugs. All drugs were solubilized in 45% (2-Hydroxypropyl)-p-cyclodextrin (HBC) or 0.9% NaCl.

[3] = test system: Wnt-signaling reporter activity (TCF/Lef:H2B-GFP); experiment: TCF/Lef:H2B-GFP reporter mice; conditions: low-dose DXR (legend: [Low]nanoDXR, 3 hours post-injection)
Excerpt: Percent of TCF/Lef:H2B-GFP^+ cells for each population are indicated.

[4] = test system: functional, tumorigenic LSCs; experiment: Tumorigenic assay: BM of treated leukemic mice transplanted into NSG recipients; conditions: [Low]DXR alone; nearly 6 months post-transplant
Procedure: At 12 days post-treatment, BM was harvested from treated mice and transplanted into sub-lethally irradiated NSG recipients. Treatment and transplantation schematic and Kaplan-Meier curves of recipient mice were shown. Red arrow indicates day 0 in survival curve.
The free [Low]DXR treatment group (solid line) from FIG. 5F is shown for comparison (n=30 per group).
Tumorigenic assays were performed by transplanting 0.5, 1.5, or 4.5×10^4 bone marrow cells from treated mice at 12 days post-treatment into 3.25 Gy irradiated NSG recipient mice. 10 recipients were used for each dose from each group. One male and one female donor was used for each group. Leukemia was assessed in mice euthanized due to poor health by analyzing CD45^HiCD^3+ cell frequency. Mice having >20% Blasts in the bone marrow were considered leukemic. NSG and Ptprc mice were originally obtained from The Jackson Laboratory.

pS^552-β-catenin = experiment: FACS for pS552-β-catenin in populations from treated leukemic mice; conditions: [Low]DXR; 4 days post-treatment; LSCs
Procedure: Percent of LSC, HSPC or blast cell population expressing pS^552-β-catenin is indicated for each treatment. Numbers indicate mean±SD; n=3-5 per group.
For FACS analysis using PE-conjugated monoclonal anti-pS552-β-catenin antibody, cells were washed twice after cell surface staining, resuspended in 250ul of BD Fixation/Permeabilization® solution, incubated for 20 minutes at 4°, washed 2× with 1 ml of 1×BD Perm/Wash Buffer®, resuspended with 100 ul 1×BD Perm/Wash Buffer®, added […] anti-pS552-β-catenin antibody per 100 ul solution containing up to 3 million cells, incubated 2 hours on ice with rocking (resuspended every 15 minutes), washed 2 times and resuspended in PBS+2% FBS for analysis. BM from β-cat knockout mouse was harvested at 2-3 weeks post-knockout induction and stained alongside other test samples.

COc1cccc2c1C(=O)c1c(O)c3c(c(O)c1C2=O)C[C@@](O)(C(=O)CO)C[C@@H]3O[C@H]1C[C@H](N)[C@H](O)[C@H](C)O1 [DXR, doxorubicin]
Hallmark MYC targets in LSCs ([1]; [Low]DXR): reduced | most highly enriched terms in LSCs compared to control or chemotherapy ([1]; [Low]DXR): upregulation of immune-related terms | expression of resistance pathways, LSCs versus HSPCs ([1]; clinical DXR): increased expression of oncogenic signaling and other resistance pathways | survival compared to vehicle alone ([2]; clinical-dose DXR combined with chemotherapy): significantly reduced survival | improvement of survival ([2]; mouse, in vivo): did not | Wnt-signaling reporter activity [3]: significantly inhibits | recipients that remained healthy [4]: 27/30 | pS552-β-catenin expression (pS^552-β-catenin): substantially reduced
